The text below walks through data of the supplement of paper PMC11208160.

The data set in a line: recombinant UMI read abundance after kanamycin selection (control-corrected) (log10(CPM+1)); higher = more efficient recombination; extreme values may be limits of the assay; sequences stand for … in AGTGCAGAGAAAATCGGCCAGTTTTCTCTGCCTGCAGTCCGCATGCCGTGGGACCCCTTGGGTTCTAACCTGTTGCCTAGATTTATGCAGCGGACTGCCTTTCTCCCAAAGTGATAAACCGG…AGGTTGGTTTCACT; site = the 11-nt donor. The essentials:
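Values are reported as log10(CPM+1), obtained by converting sequencing counts to CPM, averaging replicates and scaling by control-derived factors. The counts came from recombinant UMIs amplified by PCR across the donor–target junction. These UMIs came from a pooled Escherichia coli screen of donor and donor-binding-loop pairs for the IS621 bridge recombinase, plated with IPTG (0.07 mM) plus kanamycin or left unselected, in two replicates each.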
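Note: IS621 bridge recombinase in Escherichia coli cells against a fixed T5 target plasmid.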

Regarding “CTGGAGTCATGGACCGGTTTTCCCGGTAATCCGTATTTGCC (site CGGGAGTCTGG)”, the “recombinant UMI read abundance (log10)” value came out at 0.
The same measure for “CTGGAGTCATGGACCGGTTTTCCCGGTAATCCGTATTTGCC (site CTGGAGTCTGG)”: 2.84; for “CTGGCATCATGGACCGGTTTTCCCGGTAATCCGTATTTGAC (site CTAGTATCTGT)”: 0; for “CTGGCATCATGGACCGGTTTTCCCGGTAATCCGTATTTGAC (site CTGGCATCTGT)”: 1.53.
On to “CTGGCTCCATGGACCGGTTTTCCCGGTAATCCGTATTTGGC (site CTGGCTCCTGC)”, for which the “recombinant UMI read abundance (log10)” value is 0.763.
The same measure for “CTGGCTGCATGGACCGGTTTTCCCGGTAATCCGTATTTGGT (site CTGGCTGCTAC)”: 1.7; for “CTGGGCACATGGACCGGTTTTCCCGGTAATCCGTATTTGAG (site CTGGGCACTCT)”: 0.567; for “CTGGTAGCATGGACCGGTTTTCCCGGTAATCCGTATTTGAC (site CTAGTATCTGT)”: 1.68.
Turning to “CTGGTAGCATGGACCGGTTTTCCCGGTAATCCGTATTTGAC (site CTGGTAGCTGT)”, the “recombinant UMI read abundance (log10)” value was determined as 2.85.
To “CTGGTGGCATGGACCGGTTTTCCCGGTAATCCGTATTTGTT (site CTGGTGGCTAA)” belongs 0.723.
To “CTGGTTTCATGGACCGGTTTTCCCGGTAATCCGTATTTGAC (site CTAGTATCTGT)” belongs 0.542.
“CTGGTTTCATGGACCGGTTTTCCCGGTAATCCGTATTTGAC (site CTGGTTTCTGT)”: the “recombinant UMI read abundance (log10)” value was found to be 1.87.
To “CTGTAATCATGGACCGGTTTTCCCGGTAATCCGTATTTGTG (site CTGTAATCTCA)” belongs 2.52; to “CTGTACACATGGACCGGTTTTCCCGGTAATCCGTATTTGCT (site CTATACACTAG)”, 2.55.
Turning to “CTGTACACATGGACCGGTTTTCCCGGTAATCCGTATTTGCT (site CTCTACACTAG)”, the “recombinant UMI read abundance (log10)” value was 1.52.
To “CTGTACACATGGACCGGTTTTCCCGGTAATCCGTATTTGCT (site CTGTACACTAG)” belongs 2.51.
To “CTGTACACATGGACCGGTTTTCCCGGTAATCCGTATTTGCT (site CTTTACACTAG)” belongs 0.828; to “CTGTACGCATGGACCGGTTTTCCCGGTAATCCGTATTTGTC (site CTGTACGCTGA)”, 2.56; to “CTGTCGCCATGGACCGGTTTTCCCGGTAATCCGTATTTGCA (site CTGTCGCCTTG)”, 0.
As for “CTGTCGTCATGGACCGGTTTTCCCGGTAATCCGTATTTGTG (site CTGTCGTCTCA)”, the “recombinant UMI read abundance (log10)” value is 0.831.
The same measure for “CTGTGACCATGGACCGGTTTTCCCGGTAATCCGTATTTGTA (site CTGTGACCTTA)”: 0.00405; for “CTGTGCCCATGGACCGGTTTTCCCGGTAATCCGTATTTGAG (site CTGTGCCCTCT)”: 0.0219.
The same measure for “CTGTGCCCATGGACCGGTTTTCCCGGTAATCCGTATTTGCC (site CTGTGCCCTGG)”: 1.34.
The same measure for “CTGTTAGCATGGACCGGTTTTCCCGGTAATCCGTATTTGTG (site CAGTTAGCTCA)”: 0.669; for “CTGTTAGCATGGACCGGTTTTCCCGGTAATCCGTATTTGTG (site CCGTTAGCTCA)”: 0.102.
Regarding “CTGTTAGCATGGACCGGTTTTCCCGGTAATCCGTATTTGTG (site CGGTTAGCTCA)”, the “recombinant UMI read abundance (log10)” value was determined as 0.0126.
The same measure for “CTGTTAGCATGGACCGGTTTTCCCGGTAATCCGTATTTGTG (site CTGTTAGCTCA)”: 2.07; for “CTGTTCGCATGGACCGGTTTTCCCGGTAATCCGTATTTGTA (site CTGTTCGCTTA)”: 2.09.
As for “CTGTTGCCATGGACCGGTTTTCCCGGTAATCCGTATTTGAC (site CTGTTGCCTGT)”, the “recombinant UMI read abundance (log10)” value amounted to 0.
For the sequence “CTTAAAGCATGGACCGGTTTTCCCGGTAATCCGTATTTGAT (site CATAAAGCTAT)”, the “recombinant UMI read abundance (log10)” value was 0.
The same measure for “CTTAAAGCATGGACCGGTTTTCCCGGTAATCCGTATTTGAT (site CCTAAAGCTAT)”: 0.
To “CTTAAAGCATGGACCGGTTTTCCCGGTAATCCGTATTTGAT (site CGTAAAGCTAT)” belongs 0; to “CTTAAAGCATGGACCGGTTTTCCCGGTAATCCGTATTTGAT (site CTTAAAGCTAT)”, 1.08.
Consider “CTTAATACATGGACCGGTTTTCCCGGTAATCCGTATTTGGC (site CATAATACTGC)”, for which the “recombinant UMI read abundance (log10)” value stood at 0.00796.
For the sequence “CTTAATACATGGACCGGTTTTCCCGGTAATCCGTATTTGGC (site CCTAATACTGC)”, the “recombinant UMI read abundance (log10)” value was 0.
The same measure for “CTTAATACATGGACCGGTTTTCCCGGTAATCCGTATTTGGC (site CGTAATACTGC)”: 0.0463; for “CTTAATACATGGACCGGTTTTCCCGGTAATCCGTATTTGGC (site CTTAATACTGC)”: 0; for “CTTACGGCATGGACCGGTTTTCCCGGTAATCCGTATTTGAT (site CTTACGGCTAT)”: 1.44.
Take “CTTACTACATGGACCGGTTTTCCCGGTAATCCGTATTTGGC (site CTTACTACTGC)”: the “recombinant UMI read abundance (log10)” value was found to be 0.688.
For the sequence “CTTAGAACATGGACCGGTTTTCCCGGTAATCCGTATTTGGC (site ATTAGAACTGC)”, the “recombinant UMI read abundance (log10)” value was 0.
As to “CTTAGAACATGGACCGGTTTTCCCGGTAATCCGTATTTGGC (site CTTAGAACTGC)”, the “recombinant UMI read abundance (log10)” value was determined as 1.4.
For “CTTAGAACATGGACCGGTTTTCCCGGTAATCCGTATTTGGC (site GTTAGAACTGC)”, the “recombinant UMI read abundance (log10)” value stood at 0.016.
For “CTTAGAACATGGACCGGTTTTCCCGGTAATCCGTATTTGGC (site TTTAGAACTGC)”, the “recombinant UMI read abundance (log10)” value amounted to 0.
To “CTTCAATCATGGACCGGTTTTCCCGGTAATCCGTATTTGGA (site CTTCAATCTTC)” belongs 1.71; to “CTTCACTCATGGACCGGTTTTCCCGGTAATCCGTATTTGTA (site CTTCACTCTTA)”, 1.73.
The same measure for “CTTCACTCATGGACCGGTTTTCCCGGTAATCCGTATTTGTA (site CTTCCCTCTTA)”: 0.00659.
“CTTCACTCATGGACCGGTTTTCCCGGTAATCCGTATTTGTA (site CTTCGCTCTTA)”: the “recombinant UMI read abundance (log10)” value was 0.00683.
The same measure for “CTTCACTCATGGACCGGTTTTCCCGGTAATCCGTATTTGTA (site CTTCTCTCTTA)”: 0; for “CTTCAGTCATGGACCGGTTTTCCCGGTAATCCGTATTTGGC (site CTTCAGTCTGC)”: 0.339.
For the sequence “CTTCATACATGGACCGGTTTTCCCGGTAATCCGTATTTGTT (site CTTCATACTAA)”, the “recombinant UMI read abundance (log10)” value stood at 1.32.
In the case of “CTTCCCTCATGGACCGGTTTTCCCGGTAATCCGTATTTGTG (site CTTCCCTCTCA)”, the “recombinant UMI read abundance (log10)” value stood at 0.257.
The same measure for “CTTCCTACATGGACCGGTTTTCCCGGTAATCCGTATTTGTA (site CTTCCTACTTA)”: 0.451; for “CTTCGCACATGGACCGGTTTTCCCGGTAATCCGTATTTGAA (site CTTCGCACTTT)”: 0.375; for “CTTCTCTCATGGACCGGTTTTCCCGGTAATCCGTATTTGTA (site ATTCTCTCTTA)”: 0.402.
To “CTTCTCTCATGGACCGGTTTTCCCGGTAATCCGTATTTGTA (site CATCTCTCTTA)” belongs 0.954; to “CTTCTCTCATGGACCGGTTTTCCCGGTAATCCGTATTTGTA (site CCTCTCTCTTA)”, 0.823; to “CTTCTCTCATGGACCGGTTTTCCCGGTAATCCGTATTTGTA (site CGTCTCTCTTA)”, 1.35.
The same measure for “CTTCTCTCATGGACCGGTTTTCCCGGTAATCCGTATTTGTA (site CTACTCTCTTA)”: 0.967.
As to “CTTCTCTCATGGACCGGTTTTCCCGGTAATCCGTATTTGTA (site CTCCTCTCTTA)”, the “recombinant UMI read abundance (log10)” value was found to be 1.89.
In the case of “CTTCTCTCATGGACCGGTTTTCCCGGTAATCCGTATTTGTA (site CTGCTCTCTTA)”, the “recombinant UMI read abundance (log10)” value was found to be 0.693.
For “CTTCTCTCATGGACCGGTTTTCCCGGTAATCCGTATTTGTA (site CTTATCTCTTA)”, the “recombinant UMI read abundance (log10)” value amounted to 0.00276.
The same measure for “CTTCTCTCATGGACCGGTTTTCCCGGTAATCCGTATTTGTA (site CTTCACTCTTA)”: 0; for “CTTCTCTCATGGACCGGTTTTCCCGGTAATCCGTATTTGTA (site CTTCCCTCTTA)”: 0.181.
The same measure for “CTTCTCTCATGGACCGGTTTTCCCGGTAATCCGTATTTGTA (site CTTCGCTCTTA)”: 0.00811; for “CTTCTCTCATGGACCGGTTTTCCCGGTAATCCGTATTTGTA (site CTTCTATCTTA)”: 0.394; for “CTTCTCTCATGGACCGGTTTTCCCGGTAATCCGTATTTGTA (site CTTCTCACTTA)”: 0.0108.
To “CTTCTCTCATGGACCGGTTTTCCCGGTAATCCGTATTTGTA (site CTTCTCCCTTA)” belongs 0.207.
On to “CTTCTCTCATGGACCGGTTTTCCCGGTAATCCGTATTTGTA (site CTTCTCGCTTA)”, for which the “recombinant UMI read abundance (log10)” value was 0.0131.
